This is an account of results in PMC6422423, “Constitutively active BRS3 is a genuinely orphan GPCR in placental mammals” (PLoS Biology, 2019).

“Also recorded” adds a separate entry of the source. *1 amine or outer side, *2 acyl side, *3 side chain or, on linkers, in order; H or OH if unused. Where a SMILES comes first, the peptide text is derived from it. Bridges are numbered along the chain shown (N, C = ends). [ ]: non-standard residue; d: D form. X1 = CC(=O)NC(C(=O)OC(C(C)C)C(N[*:1])C(=O)[*:2])C(O)C(C)C; PhLac = O=C(O)[CH](O)Cc1ccccc1; NMeT = CN[CH](C(=O)O)[CH](C)O; NMeA = CN[CH](C)C(=O)O; NMeDha = C=C(NC)C(=O)O

One assay relates to GPR39. Particulars: cited from earlier work. From the text:
Coevolution of GPCR–ligand pairs appears more pronounced in the polypeptide family, and there are approximately 30 orphan GPCRs from the polypeptide family, in which endogenous peptide ligands are predicted to bind to and activate these orphan GPCRs. Since GPCRs from the polypeptide family were considered to be paired with natural polypeptide ligands, many studies aim to identify endogenous peptides to deorphanize these orphan GPCRs in the polypeptide family. According to the evolution of GPCR-peptide pairs, after the 2R event during the origin of vertebrates, most orphan GP ...

Assay [1] relates to BRS3 of placental mammals (hBRS3, mBRS3, and aBRS3). The experiment in a line: Luciferase reporter, constitutive Gq activity with inhibitor, pooled. Format: cell-based, human, mouse, aardvark. As to conditions: inhibitor 25 μM, 12 h, HEK293. As to the method: (§1) To detect constitutive activity of BRS3, HEK293 cells were seeded in 24-well plates and cotransfected with the CRE/NFAT-RE/SRF-RE/SRE luciferase reporter plasmids (50 ng), the BRS3 from different species, or BRS3 mutants with different doses (10 ng/50 ng/150 ng); after 24 h, cells were further incubated in serum-free media for another 12 h before luciferase assay. As for peptide supplementation treatment, HEK293 cells were cotransfected with the CRE/NFAT-RE/SRF-RE/SRE luciferase reporter plasmids (50 ng) and various genes (300 ng) of the bombesin receptor family. […] Luciferase activities were determined using luciferase assay kits (Beyotime, Shanghai, China) and normalized to β-galactosidase activity. All experiments were performed at least three times in triplicates. HEK293 cells transfected with pcDNA were used as a blank control in all luciferase experiments, and the fold was calculated compared to blank control.

Another assay relates to mouse BRS3 (mBRS3). The experiment in a line: Luciferase reporter, constitutive activity (WT, mutants, truncated; with/without inhibitor). It counts as cell-based. Particulars: 25 μM inhibitor 12 h, HEK293, vs blank. As to the method:
as §1

A further assay concerns human BRS3 (hBRS3). The assay is described as above. Format: cell-based. Particulars: 25 μM inhibitor 12 h, HEK293, vs blank. As to the method:
as §1

Assay [2] deals with BRS3 receptors in nonplacental vertebrates. The experiment in a line: Intracellular calcium assay, nonplacental pooled. It counts as cell-based, koala, platypus, chicken, turtle, frog, and spotted gar. As to conditions: cBRS3, tBRS3, sBRS3; inhibitor 25 μM 1 h, then GRP or NMB 10 nM; HEK293. As to the method:
Intracellular calcium was measured using the non-wash calcium assay Fluo8 kit (ab112129, Abcam) according to the manufacturer’s instructions. Briefly, HEK293 cells were seeded in 24-well plates and were transfected with GRPR, NMBR, BRS3, or the empty vector plasmid pcDNA3.1-V5-His (300 ng) and incubated overnight at 37°C with 5% CO2. The next day, the cells were replated into a 96-well assay plate (black plate and clear bottom). After 12 h, growth media were aspirated, and calcium dye was added. […] The basal fluorescence intensity was recorded 15 times at 1 Hz for […]. The results were normalized to the average basal fluorescence intensity in ratio, and the peak response was used for the result calculation. Calcium fold was calculated using no stimulation data as standard value.

For a further assay, the system named is aardvark BRS3 (aBRS3). Put plainly: Luciferase reporter, constitutive activity (WT, mutants, truncated; with/without inhibitor). Particulars: 25 μM inhibitor 12 h, HEK293, vs blank. Format: cell-based, Orycteropus afer. As to the method: as §1
Background: A reporter such as luciferase makes a cellular process visible.

Assay [3] concerns BRS3 receptors in nonplacental vertebrates. The experiment in a line: ERK1/2 phosphorylation, nonplacental pooled. As to conditions: cBRS3, tBRS3, sBRS3; inhibitor 25 μM 1 h, then GRP or NMB 1 μM 5 min; HEK293. It counts as cell-based, koala, platypus, chicken, turtle, frog, and spotted gar. As to the method:
For ERK1/2 phosphorylation, HEK293 cells were seeded in 24-well plates and transfected with GRPR, NMBR, BRS3, mutants of different species’ BRS3, or an empty vector plasmid, pcDNA3.1-V5-His plasmid (300 ng). […] Each sample with an equal amount of protein was mixed with 6×SDS sample buffer, boiled for 5 min, and separated on 10% SDS-polyacrylamide gel electrophoresis (PAGE) before transferring the proteins onto a PVDF membrane. The membranes were then blocked at room temperature for 1 h with 5% milk powder in Tris-buffered saline-Tween (TBST), followed by subsequent incubation at 4°C overnight in TBST containing the different primary antibodies (1:1,000 dilution). After washing three times (10 min each time) with TBST, the membranes were incubated for 1 h in TBST containing the secondary antibodies (1:2,000 dilution), followed by washing three times (10 min each time) with TBST, prior to detection by chemiluminescence.

In a further assay the test system is N-tBRS3 (turtle). The experiment in a line: Luciferase reporter, N-terminal peptide stimulated, truncated receptor. As to conditions: 1,000 nM, 12 h, HEK293. It counts as cell-based, Chrysemys picta. As to the method: as §1
For assay [4], the system named is N-BRS3 receptors of placental mammals (N-hBRS3, N-mBRS3, and N-aBRS3). The experiment in a line: Luciferase reporter, N-terminal peptide stimulated, pooled. Format: cell-based, human, mouse, aardvark. Particulars: CRE/NFAT-RE/SRF-RE; 1,000 nM, 12 h, HEK293. The procedure: as §1
In assay [5] the test system is N-mBRS3 (mouse BRS3 with truncated N terminus). The experiment in a line: Luciferase reporter, N-terminal peptide stimulated, truncated receptor. It counts as cell-based. As to conditions: 1,000 nM peptide 12 h, HEK293. As to the method: as §1
In assay [6] the test system is N-hBRS3 (human BRS3 with truncated N terminus). Described as above. Format: cell-based. As to conditions: 1,000 nM peptide 12 h, HEK293. As to the method: as §1
A further assay concerns N-cBRS3 (chicken). Described as above. Format: cell-based, Gallus gallus. As to conditions: 1,000 nM, 12 h, HEK293. As to the method: as §1
Assay [7] concerns pcDNA-transfected HEK293 cells. Put plainly: Luciferase reporter, N-terminal peptide stimulated, empty vector. It counts as cell-based, human. Particulars: 1,000 nM peptide 12 h. As to the method:
as §1

The subject of the next assay is N-sBRS3 (spotted gar). Put plainly: Luciferase reporter, N-terminal peptide stimulated, truncated receptor. Format: cell-based, Lepisosteus oculatus. Particulars: 1,000 nM, 12 h, HEK293. As to the method:
as §1

The test system of assay [8] is N-aBRS3 (aardvark BRS3 with truncated N terminus). The assay is described as above. It counts as cell-based, Orycteropus afer. Particulars: 1,000 nM peptide 12 h, HEK293. The procedure: as §1

Take obestatin: in the assay on GPR39, the “Activation of GPR39 (in words)” value is “activated” and the “Activation of GPR39, contrary view (in words)” value is reported as “cannot be activated”.

Take `C=C1C(=O)NC(C)C(=O)N(C)C(C)C(=O)NC(C(OC(=O)C(NC(C)=O)C(O)C(C)C)C(C)C)C(=O)N(C)C(C(C)OC)C(=O)OC(C)C(NC(C)=O)C(=O)OC(Cc2ccccc2)C(=O)N1C` (stereo not drawn) [YM 254890] (Ac-T[PhLac][NMeDha]A[NMeA][X1][NMeT](Me); ester 1-C; configuration not given here): in assay [1], the “Inhibition of constitutive Gq signaling (in words)” value is on record as “inhibits the constitutively activated Gq signaling pathway”. Moreover, the “Luciferase fold (constitutive Gq signaling) with inhibitor” value in the assay with mouse BRS3 (mBRS3) (line 1) was found to be 1.3903 fold; with mouse BRS3 (mBRS3) (line 2), 1.6189 fold; in the assay on mouse BRS3 (mBRS3) (line 3), 1.5046 fold; in the assay on human BRS3 (hBRS3) (line 1), 0.7675 fold; in the assay on human BRS3 (hBRS3) (line 2) it was 0.8993 fold; in the assay with human BRS3 (hBRS3) (line 3) it was 0.8334 fold. The “Luciferase fold (constitutive Gq signaling) with inhibitor” value is on record as 1.6524 fold with aardvark BRS3 (aBRS3) (line 1), 1.8796 fold with aardvark BRS3 (aBRS3) (line 2) and 1.766 fold in the assay on aardvark BRS3 (aBRS3) (line 3). The “Inhibition of Ca2+ mobilization (in words)” value in assay [2] is on record as “inhibits Ca^2+ ion levels; also recorded: inhibited”. Moreover, the “Inhibition of ERK phosphorylation (in words)” value in assay [3] was “inhibits the phosphorylation levels of ERK; also recorded: inhibited”.

For the compound `CN1CCN(c2nc(C3=C(c4c[nH]c5ccccc45)C(=O)NC3=O)c3ccccc3n2)CC1` [Sotrastaurin], in assay [1], the “Inhibition of constitutive Gq signaling (in words)” value is “inhibits the constitutively activated Gq signaling pathway”. Further, the “Inhibition of Ca2+ mobilization (in words)” value in assay [2] is “inhibits Ca^2+ ion levels”. The “Inhibition of ERK phosphorylation (in words)” value in assay [3] is recorded as “inhibits the phosphorylation levels of ERK”.

Turning to “MSQRQSQSPNQTLISITNDTETSSSVVSNDTTHKGWTGDNS-NH2 [N-terminal peptide of mBRS3, synthetic N terminus peptide of mouse BRS3]”, the “Activation of truncated receptor (in words)” value in the assay on N-tBRS3 (turtle), in the assay with N-cBRS3 (chicken) and in the assay with N-sBRS3 (spotted gar) was “cannot be stimulated” throughout. In addition, in assay [4], the “Activation of truncated receptors (in words)” value is on record as “all CRE/NFAT-RE/SRF-RE signaling pathways could be activated”. For the same compound, the CRE luciferase fold in [5] (line 1) was found to be 1.2458 fold; in assay [5] (line 2), 1.0945 fold; in assay [5] (line 3), 1.1702 fold; in assay [6] (line 1), 1.2968 fold; in assay [6] (line 2), 1.4057 fold; in [6] (line 3), 1.3512 fold. Besides, the CRE luciferase fold worked out at 0.9705 fold in assay [7] (line 1); 1.0972 fold in assay [7] (line 2); 1.0338 fold in [7] (line 3); 1.4026 fold in [8] (line 1); 1.3089 fold in assay [8] (line 2); 1.3558 fold in assay [8] (line 3). Besides, the NFAT luciferase fold in [5] (line 1) worked out at 2.0847 fold; in assay [5] (line 2), 1.8235 fold; in assay [5] (line 3), 1.9541 fold; in assay [6] (line 1), 1.5912 fold; in [6] (line 2), 1.6741 fold; in [6] (line 3), 1.6327 fold. Further, the NFAT luciferase fold is 0.9071 fold in [7] (line 1); 1.1044 fold in assay [7] (line 2); 1.0057 fold in assay [7] (line 3); 2.2791 fold in assay [8] (line 1); 1.9413 fold in assay [8] (line 2); 2.1102 fold in [8] (line 3). Also, the SRF luciferase fold is 1.4898 fold in [5] (line 1); 1.6079 fold in assay [5] (line 2); 1.5488 fold in [5] (line 3); 1.6244 fold in assay [6] (line 1); 1.7709 fold in [6] (line 2); 1.6976 fold in [6] (line 3). The SRF luciferase fold in [7] (line 1) came to 0.9788 fold; in assay [7] (line 2), 1.0087 fold; in assay [7] (line 3), 0.9937 fold; in [8] (line 1) it was 1.3458 fold; in assay [8] (line 2), 1.2427 fold; in [8] (line 3), 1.2942 fold.
